Test results taken from US8937091B2 (Japan Science and Technology Agency, priority 2009, dated 2015).

What was measured:
[1] = tested on: IICR (IP3 induced calcium release) in CHO cells; assay: Assay of IICR (IP3 induced calcium release)-inhibiting action; type: cell-based, Chinese hamster; details: CHO cells, 10 μM ATP; for inhibition at 10 µM / inhibition at 30 µM / inhibition at 100 µM: Cricetulus griseus, CHO, read-out: IICR level (percentage of inhibition)
Outline: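 Inhibition (%) of the intracellular calcium increase triggered by 10 μM ATP, measured in CHO cells in BSS with calcium. Compound given 1 min after the buffer exchange and 2 min before ATP; values reported per compound concentration.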

[2] = tested on: SOCE (store operated calcium entry) in CHO cells; assay: Assay of SOCE (store operated calcium entry)-inhibiting action; type: cell-based, Chinese hamster; details: CHO cells, thapsigargin; for inhibition at 30 µM / inhibition at 100 µM / inhibition at 10 µM: Cricetulus griseus, CHO, read-out: SOCE level (percentage of inhibition)
Outline: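 CHO cells in calcium-free BSS received compound, then 1 μM thapsigargin 2 min later to deplete stores; after 9 min, 2 mM calcium chloride (final) added. Percent inhibition of the rise in intracellular calcium determined at various compound concentrations.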

Structure (SMILES) | inhibition at 10 µM ([1]; test compound 10 μmol) | inhibition at 30 µM ([1]; test compound 30 μmol) | inhibition at 100 µM ([1]; test compound 100 μmol) | inhibition at 30 µM ([2]; test compound 30 μmol) | inhibition at 100 µM ([2]; test compound 100 μmol) | inhibition at 10 µM ([2]; test compound 10 μmol) | IICR level (percentage of inhibition) ([1]; test compound 10 μmol) | IICR level (percentage of inhibition) ([1]; test compound 30 μmol) | IICR level (percentage of inhibition) ([1]; test compound 100 μmol) | SOCE level (percentage of inhibition) ([2]; test compound 10 μmol) | SOCE level (percentage of inhibition) ([2]; test compound 30 μmol) | SOCE level (percentage of inhibition) ([2]; test compound 100 μmol)
CCN(CCC(=O)c1ccc(Cl)s1)Cc1ccccc1 [Example 278, 2-(N-ethylbenzyl)aminoethyl-5-chloro-2-thienylketone] | 30% | 20% | 60% | 30% | 40% | – | – | – | – | – | – | –
CN(CCC(=O)c1ccc(Cl)s1)Cc1ccccc1 [Example 279, 2-(N-methylbenzyl)aminoethyl-5-chloro-2-thienylketone] | 20% | 0% | 40% | 30% | 40% | – | – | – | – | – | – | –
CC(C)(C)N(CCC(=O)c1ccc(Cl)s1)Cc1ccccc1 [Example 280, 2-(N-t-butylbenzyl)aminoethyl-5-chloro-2-thienylketone] | 50% | 60% | 70% | 0% | 30% | – | – | – | – | – | – | –
CC(O)CNCCC(=O)c1cnccn1 (centres unmarked) [Example 281, 2-(N-2-hydroxypropyl)aminoethyl-2-pyrazylketone] | 20% | 20% | 50% | 0% | 0% | – | – | – | – | – | – | –
O=C(CCN1CCCC1CO)c1cnccn1 (centres unmarked) [Example 282, 2-(2-hydroxymethylpyrrolidino)ethyl-2-pyrazylketone] | 0% | 20% | 50% | 0% | 0% | – | – | – | – | – | – | –
CC(C)N(CCC(=O)c1cc2ccccc2s1)Cc1ccccc1 [Example 283, 2-(N-isopropylbenzyl)aminoethyl-2-benzothienylketone] | 50% | 80% | 50% | 0% | 40% | – | – | – | – | – | – | –
CC(C)N(CCO)CCC(=O)c1cc2ccccc2s1 [Example 284, 2-(N-isopropyl-2-hydroxyethyl)aminoethyl-2-benzothienylketone] | 0% | 0% | 40% | 0% | 0% | – | – | – | – | – | – | –
CC(C)(C)N(CCC(=O)c1cc2ccccc2s1)Cc1ccccc1 [Example 285, 2-(N-t-butylbenzyl)aminoethyl-2-benzothienylketone] | 50% | 80% | 60% | 0% | 50% | – | – | – | – | – | – | –
CCN(CCC(=O)c1nccs1)Cc1ccccc1 [Example 289, 2-(N-ethylbenzyl)aminoethyl-2-thiazolylketone] | 40% | 80% | 100% | 0% | 10% | – | – | – | – | – | – | –
O=C(CCN(CCO)Cc1ccccc1)c1nccs1 [Example 290, 2-(N-2-hydroxyethylbenzyl)aminoethyl-2-thiazolylketone] | 40% | 60% | 90% | 0% | 0% | – | – | – | – | – | – | –
CN(CCO)CCC(=O)c1nccs1 [Example 291, 2-(N-2-hydroxyethylmethyl)aminoethyl-2-thiazolylketone] | 40% | 70% | 100% | 0% | 0% | 0% | – | – | – | – | – | –
CC(C)N(CCC(=O)c1ccc(Br)s1)Cc1ccccc1 [Example 292, 2-(N-isopropylbenzyl)aminoethyl-5-bromo-2-thienylketone] | 50% | 80% | 90% | 20% | 40% | 0% | – | – | – | – | – | –
CCCCN(CCO)CCC(=O)c1ccc(Br)s1 [Example 293, 2-(N-2-hydroxyethylbutyl)aminoethyl-5-bromo-2-thienylketone] | 80% | 50% | 90% | 0% | 10% | 0% | – | – | – | – | – | –
CC(C)(C)N(CCO)CCC(=O)c1ccc(Br)s1 [Example 294, 2-(N-2-hydroxyethyl-t-butyl)aminoethyl-5-bromo-2-thienylketone] | – | – | 50% | – | 10% | 0% | 70% | 40% | – | – | – | –
CC(C)N(CCC(=O)n1nnc2ccccc21)Cc1ccccc1 [Example 295, 2-(N-isopropylbenzyl)aminoethyl-1-benzotriazoketone] | 80% | 70% | 60% | 0% | 0% | 0% | – | – | – | – | – | –
O=C(CCN(CCO)CCO)n1nnc2ccccc21 [Example 296, 2-bis(N-2-hydroxyethyl)aminoethyl-1-benzotriazoketone] | 0% | 50% | 60% | 0% | 20% | 0% | – | – | – | – | – | –
CC(C)N(CCC(=O)c1ccc(-c2ccccc2)cc1)Cc1ccccc1 [Example 297, 2-(N-isopropylbenzyl)aminoethyl-4-biphenylketone] | 50% | 50% | 90% | 50% | 60% | 20% | – | – | – | – | – | –
CC(C)N(CCO)CCC(=O)c1ccc(-c2ccccc2)cc1 [Example 298, 2-(N-2-hydroxyethylisopropyl)aminoethyl-4-biphenylketone] | 60% | 50% | 60% | 40% | 50% | 20% | – | – | – | – | – | –
O=C(CCN(CCO)c1ccccc1)c1ccc(-c2ccccc2)cc1 [Example 299, 2-(N-2-hydroxyethylphenyl)aminoethyl-4-biphenylketone] | 70% | 30% | 30% | 40% | 40% | 20% | – | – | – | – | – | –
O=C(CCNCCc1ccccc1)c1ccco1 [Example 300, 2-(N-phenethyl)aminoethyl-2-furylketone] | 30% | 0% | 10% | 20% | 40% | – | – | – | – | – | – | –
CCN(CCC(=O)c1ccc(Br)s1)Cc1ccccc1 [Example 301, 2-(N-ethylbenzyl)aminoethyl-5-bromo-2-thienylketone] | 70% | 70% | 90% | 30% | 40% | 20% | – | – | – | – | – | –
CC(C)(C)N(CCC(=O)c1ccc(C#N)cc1)Cc1ccccc1 [Example 302, 2-(N-t-butylbenzyl)aminoethyl-4-cyanophenylketone] | – | 90% | – | 0% | 20% | 0% | 60% | – | – | – | – | –
Cc1ccc(C(=O)CCN(Cc2ccccc2)C(C)(C)C)cc1 [Example 303, 4-tolyl(N-benzyl-N-t-butyl)aminoethylketone] | 20% | 20% | 40% | 0% | 0% | 0% | – | – | – | – | – | –
CC(C)(C)N(CCC(=O)c1ccc(C#N)cc1)Cc1ccccc1 [Example 304, 4-cyanophenyl(N-benzyl-N-t-butyl)aminoethylketone] | – | – | – | – | – | – | 90% | 100% | 20% | 0% | 0% | 10%
CC(C)(C)N(CCC(=O)c1ccc(Cl)cc1)Cc1ccccc1 [Example 305, 2-(N-t-butyl-N-benzyl)aminoethyl-4-chlorophenylketone] | 60% | 70% | 50% | 20% | 60% | 20% | – | – | – | – | – | –
Cc1ccc(C(=O)CCNCCO)s1 [Example 306, 2-(N-hydroxyethyl)aminoethyl-5-methyl-2-thienylketone] | 50% | 20% | 30% | 20% | 30% | 10% | – | – | – | – | – | –
O=C(CCNCCO)c1ccc(Br)s1 [Example 307, 2-(N-hydroxyethyl)aminoethyl-5-bromo-2-thienylketone] | – | – | – | – | – | 0% | 30% | 20% | 30% | – | 10% | 10%
CC(C)N(CCC(=O)c1ccc(C#N)cc1)Cc1ccccc1 [Example 308, 2-(N-benzylisopropyl)aminoethyl-4-cyanophenylketone] | 90% | 100% | 95% | 0% | 10% | 0% | – | – | – | – | – | –
